Results from article doi:10.1101/2024.06.17.599194v1 (biorxiv, 2024).

T1: A. baumannii IspE (AbIspE) (Acinetobacter baumannii, UniProt B2HUM5)
T1 sequence (B2HUM5 1-277): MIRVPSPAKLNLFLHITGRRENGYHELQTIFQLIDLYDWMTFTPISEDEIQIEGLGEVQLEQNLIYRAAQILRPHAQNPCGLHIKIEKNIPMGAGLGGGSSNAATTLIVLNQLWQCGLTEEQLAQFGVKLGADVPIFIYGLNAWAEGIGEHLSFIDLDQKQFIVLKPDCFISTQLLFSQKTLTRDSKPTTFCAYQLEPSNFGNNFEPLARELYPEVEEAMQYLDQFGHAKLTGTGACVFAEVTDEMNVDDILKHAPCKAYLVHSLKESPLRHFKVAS

T2: E. coli IspE (EcIspE) (Escherichia coli, UniProt P62615)
T2 sequence (P62615 1-283): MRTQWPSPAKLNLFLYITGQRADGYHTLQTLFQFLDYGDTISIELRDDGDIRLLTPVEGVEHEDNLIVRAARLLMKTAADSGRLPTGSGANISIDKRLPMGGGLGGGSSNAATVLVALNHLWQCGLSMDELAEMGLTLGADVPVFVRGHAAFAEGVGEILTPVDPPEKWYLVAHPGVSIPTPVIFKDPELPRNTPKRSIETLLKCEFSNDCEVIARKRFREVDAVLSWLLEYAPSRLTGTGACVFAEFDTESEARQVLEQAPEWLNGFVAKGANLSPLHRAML

T3: K. pneumoniae IspE (KpIspE) (Klebsiella pneumoniae, UniProt A6TAP2)
T3 sequence (A6TAP2 1-283): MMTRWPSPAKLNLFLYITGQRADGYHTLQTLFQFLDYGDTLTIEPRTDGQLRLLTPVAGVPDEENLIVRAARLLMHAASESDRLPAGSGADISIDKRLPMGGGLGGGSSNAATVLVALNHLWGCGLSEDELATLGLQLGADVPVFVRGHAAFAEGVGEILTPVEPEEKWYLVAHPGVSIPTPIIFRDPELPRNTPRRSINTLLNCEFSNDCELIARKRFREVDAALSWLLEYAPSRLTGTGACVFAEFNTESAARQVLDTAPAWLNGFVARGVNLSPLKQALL

B1: A. baumannii IspE (AbIspE) (Acinetobacter baumannii ACICU) (protein)
chain: T1 sequence (B2HUM5 1-277)
B2: E. coli IspE (EcIspE) (Escherichia coli K-12) (protein)
chain: T2 sequence (P62615 1-283)
B3: K. pneumoniae IspE (KpIspE) (Klebsiella pneumoniae subsp. pneumoniae MGH 78578) (protein)
chain: T3 sequence (A6TAP2 1-283)

Columns and labels:
[1] = target: T1, A. baumannii IspE (AbIspE); test: coupled spectrophotometric assay, dose-response; assay type: biochemical
E. coli IspE (EcIspE) = target: T2, E. coli IspE (EcIspE); test: coupled spectrophotometric assay, dose-response; assay type: biochemical
[2] = target: T3, K. pneumoniae IspE (KpIspE); test: coupled spectrophotometric assay, dose-response; assay type: biochemical
purified protein [3] = substrate: C[C@](O)(CO)[C@H](O)COP(=O)(O)OP(=O)(O)OC[C@H]1O[C@@H](n2ccc(N)nc2=O)[C@H](O)[C@@H]1O; test: purified protein; conditions: room temperature; ATP 1 mM
purified protein [4] = substrate: Nc1ncnc2c1ncn2[C@@H]1O[C@H](COP(=O)(O)OP(=O)(O)OP(=O)(O)O)[C@@H](O)[C@H]1O; test: purified protein; conditions: room temperature; CDP-ME 2 mM

| Molecule | IC50 [1] | IC50 (E. coli IspE (EcIspE)) | IC50 [2] | Km (purified protein [3]) | Km (purified protein [4]) |
| --- | --- | --- | --- | --- | --- |
| Nc1nc(=O)n(C2CCCS2)cc1C#CCNS(=O)(=O)C1CC1 (racemic) [compound 1, (±)-1] | 20 ± 3 µM | 13 ± 2.9 µM | 8 ± 1.5 µM | – | – |
| Nc1nc(=O)[nH]cc1C#CCNS(=O)(=O)C1CC1 [compound 2, 2] | – | 36.5 ± 1.6 µM | 44.3 ± 4.9 µM | – | – |
| Nc1nc(=O)[nH]cc1C#CCNS(=O)(=O)C1CCCC1 [compound 3, 3] | – | 10.3 ± 0.7 µM | 11.3 ± 0.6 µM | – | – |
| Nc1nc(=O)[nH]cc1C#CCNS(=O)(=O)C1CCCCC1 [compound 4, 4] | – | 6.2 ± 3.19 µM | 5.2 ± 1.3 µM | – | – |
| B1 | – | – | – | 358 µM | 474 µM |
| B2 | – | – | – | 200 µM | 420 µM |
| B3 | – | – | – | 170 µM | 348 µM |
